Assay [1] relates to Propionibacterium acnes. Kind of assay: Minimum growth inhibitory concentration (MIC) on Propionibacterium acnes (Test Example 1). It counts as cell-based, Propionibacterium acnes (ATCC 6919). The conditions noted are these: for MIC: Cutibacterium acnes; for Antibacterial activity (in words): inhibition of proliferation of Propionibacterium acnes, as compared with eugenol. The method, then:
The minimum growth inhibitory concentrations (MIC) of the compounds (2) and (3) as obtained in Production Examples 1 and 2 on Propionibacterium acnes were determined in the following manner.
59.0 g of a GAM (Gifu anaerobic medium) bouillon medium (manufactured by Nissui Pharmaceutical Co., Ltd.) was dissolved in 1 liter of purified water and a test compound was added thereto so as to give a concentration of 100 μg/ml. A serial 2-fold dilution of the mixture thus obtained was made with the medium followed by sterilization. 10 ml portions of the mixture were pipetted into test tubes and each inoculated with 0.1 ml of Propionibacterium acnes (ATCC 6919) which had been pre-incubated to give a cell concentration of 1×10^8 cells/mi. After stationary incubation under anaerobic conditions for 48 hours, the turbidity was measured at a wavelength of 660 nm. […] For comparison, MIC of eugenol, which had been known as having a relatively strong antibacterial activity, on Propionibacterium acnes was determined.

The test system of assay [2] is Staphylococcus epidermidis, Pseudomonas aeruginosa, Corynebacterium species, Aerobacter kleps and Candida albicans. Conditions: in words; cited from earlier work.
The subject of assay [3] is Propionibacterium acnes. Conditions: cited from earlier work.
Setting [4] is: Propionibacterium acnes, GAM bouillon medium, anaerobic, 48 hours, turbidity at 660 nm, read-out: MIC.

The structures appear in SMILES notation. Converted amounts (≈) assume the structure as drawn. Where two headings read alike, the source gives them in different places.

For `CC(C)=CCCC(C)=CCCC(C)=CCCC(C)O` (centres unmarked) [compound (3), 6,10,14-trimethyl-5,9,13-pentadecatrien-2-ol], the minimum inhibitory concentration (MIC) in the assay with Propionibacterium acnes [1] (setting [4]) was determined as 1.56 µg/mL (≈ 5.9 µM). For the same molecule, the “Antibacterial activity (in words)” value in the assay with Propionibacterium acnes [1] is recorded as “intense antibacterial activity”.

`CC(C)CCCC(C)CCCC(C)CCCC(C)O` (centres unmarked) [compound (2), 6,10,14-trimethylpentadecan-2-ol] displayed an MIC against Propionibacterium acnes [1] (48 h) of 3.13 µg/mL (≈ 11.6 µM). Further, the “Antibacterial activity (in words)” value in the assay with Propionibacterium acnes [1] is on record as “intense antibacterial activity”.

In the case of `CC(C)=CCCC(C)=CCCC(C)=CCO` [farnesol, 3,7,11-trimethyldodeca-2,6,10-trien-1-ol], the growth inhibitory effect result in assay [2] is on record as “exhibits a growth inhibitory effect”. The “antibacterial activity, used alone” value in the assay on Propionibacterium acnes [3] (farnesol used alone) was “little activity”. Moreover, the “antibacterial activity, used in combination” value in the assay with Propionibacterium acnes [3] (in combination with phenyl hydroxyalkyl ether and glycerol monolaurate) was “exhibits an antibacterial activity”.

Take `C=CCc1ccc(O)c(OC)c1` [eugenol]: the MIC in the assay on Propionibacterium acnes [1] (setting [4]) came to 50 µg/mL (≈ 304 µM).
